Results as given in patent US9783495B2, “Treatment for lipodystrophy” (Cadila Healthcare Limited, priority 2011, dated 2017).

Columns and labels:
[1] = system: Dyslipidemia subjects; assay: Phase II studies in Dyslipidemia subjects; assay type: in vivo, human; conditions: 4 mg once daily
Experimental: This was exploratory proof of concept study designed to assess the proof of safety and efficacy in intended population. […] Based upon these observations 4 mg once daily in fasted condition was selected for present study

[2] = system: subjects with hypertriglyceridemia in HIV associated lipodystrophy; assay: Prospective, multi-centric, open-label, single arm study of 4 mg of compound of formula (I) in hypertriglyceridemia in HIV associated lipodystrophy; assay type: in vivo, human; conditions: 4 mg oral once daily; for Homa of Insulin Resistance for C-Peptide, Mean ± SD: Visit 1 mean 1.59 ± 0.82; for Insulin (fasting), Mean ± SD: Visit 1 mean 9.21 ± 6.26; for HDL Cholesterol, Mean ± SD: Visit 1 mean 35.27 ± 7.85; for HOMA of Beta Cell Function for Insulin, Mean ± SD: Visit 1 mean 107.82 ± 52.85; for TG, Mean ± SD: Visit 1 mean 301.68 ± 86.99; for Homa of Insulin Resistance for C-Peptide, Median: Visit 1 median 1.40; for Insulin (fasting), Median: Visit 1 median 7.40; for HDL Cholesterol, Median: Visit 1 median 34.52; for HOMA of Beta Cell Function for Insulin, Median: Visit 1 median 97.25; for TG, Median: Visit 1 median 275.45
Excerpt: After obtaining informed written consent, subjects with hypertriglyceridemia in HIV associated lipodystrophy, on treatment with HAART for at least 18 months and satisfying the inclusion and exclusion criteria were enrolled in the study.
The primary efficacy endpoint was to assess the percent change in TG levels from baseline to Week 6 and Week 12. The secondary efficacy endpoint was the assessment of LDL, VLDL, HDL, Non HDL cholesterol, Total cholesterol, Apo Al, Apo B, and C-peptide and fasting insulin for HOMA beta and HOMA IR.
For the efficacy endpoints, treatment effect was evaluated using an analysis of variance (ANOVA) model with factors for baseline and treatment. Treatment effects were estimated using the least-square means (LSM) and 95% confidence intervals (CIs) from the ANOVA model. Statistical significance was defined as a two-sided p-value <0.05. All other secondary endpoints were analyzed using appropriate statistical methods.
Subjects who satisfied all of the following criteria were eligible for enrolment in the study: • 1. Males and females aged 18-65 years. • 2. Confirmed diagnosis of HIV1 and on HAART for at least 18 months. • 3. On stable ART regimen for at least 8 weeks prior to inclusion in the study and ART regimen not expected to change in next 3 months. • 4. Subjects clinically diagnosed as HIV lipodystrophy (at least 1 moderate or severe lipodystrophy feature identified by doctor and patient, except isolated abdominal obesity) • 5. Triglycerides>200 to 500 mg %. • 6. CD4 count of>50/mm^3 • 7. Subject who had given informed consent for participation in this trial. Treatments Treatments Administered […]
The primary efficacy endpoint was to determine the percent change in TG levels from baseline to Week 6 and Week 12.
The secondary efficacy endpoint was to determine the percent change in LDL, VLDL, HDL, total cholesterol, non-HDL Cholesterol (measured value), Apo Al, and Apo B, C-peptide and fasting insulin for HOMA beta and HOMA IR levels from baseline to Week 6 and Week 12.
The primary efficacy variable was the reduction in TG at Week 6 and Week 12 of the treatment period compared with baseline. The change from baseline was determined as the difference between the means for the treatment period (Weeks 6/Weeks 12) and the baseline.
Intent-to-treat (ITT) and/or Per Protocol (PP) analysis were carried out for the study. The PP analysis was considered definitive while the ITT analysis was considered supportive during the trial analysis.
One subject identified as EHT004 in the study, a person, was reported with abnormally low levels of HDL (3.95 mg/L) and LDL (6.25 mg/L) at Visit 1. Though this subject completed the study and was assessable for efficacy, it was decided to exclude this subject from the efficacy analyses. Therefore a total of 49 subjects were analyzed for efficacy.

[3] = Phase I study, effect of food on absorption; assay type: in vivo, human
[4] = system: HIV-infected men with central obesity and low testosterone levels; conditions: transdermal gel 10 g daily, 24 weeks, cited from earlier work
[5] = Visit 3 (Week 6), p <0.0001, listed as COMPOUND OF FORMULA(I)
[6] = Visit 4 (Week 12), p <0.0001, listed as COMPOUND OF FORMULA(I)

Q: What does the source list for “(S)-α-Ethoxy-4-[2-[-methyl-5-[4-(methylthio)phenyl]-1H-pyrrol-1-yl]ethoxy] benzenepropanoic acid magnesium salt [compound of formula (I)]”?
A: efficacy [1]: effective; tolerability [1]: well tolerated; HDL Cholesterol, Maximum ([2]; Visit 3 (Week 6)): 73.50 mg/dL; HDL Cholesterol, Minimum ([2]; Visit 3 (Week 6)): 20.13 mg/dL; HOMA of Beta Cell Function for Insulin, Maximum ([2]; Visit 3 (Week 6)): 348.00; HOMA of Beta Cell Function for Insulin, Minimum ([2]; Visit 3 (Week 6)): 34.90; Homa of Insulin Resistance for C-Peptide, Maximum ([2]; Visit 3 (Week 6)): 3.60; Homa of Insulin Resistance for C-Peptide, Minimum ([2]; Visit 3 (Week 6)): 0.90; Insulin (fasting), Maximum ([2]; Visit 3 (Week 6)): 26.82 μu/mL; Insulin (fasting), Minimum ([2]; Visit 3 (Week 6)): 2.14 μu/mL; TG, Maximum ([2]; Visit 3 (Week 6)): 631.08 mg/dL; TG, Minimum ([2]; Visit 3 (Week 6)): 42.61 mg/dL; Homa of Insulin Resistance for C-Peptide, Mean ± SD ([2]; Visit 3 (Week 6)): 1.86 ± 0.77; Insulin (fasting), Mean ± SD ([2]; Visit 3 (Week 6)): 10.42 ± 5.74 μu/mL; HDL Cholesterol, Mean ± SD ([2]; Visit 3 (Week 6)): 44.44 ± 14.04 mg/dL; HOMA of Beta Cell Function for Insulin, Mean ± SD ([2]; Visit 3 (Week 6)): 136.41 ± 76.00; TG, Mean ± SD ([2]; Visit 3 (Week 6)): 172.81 ± 106.30 mg/dL; Homa of Insulin Resistance for C-Peptide, Median ([2]; Visit 3 (Week 6)): 1.70; Insulin (fasting), Median ([2]; Visit 3 (Week 6)): 8.35 μu/mL; HDL Cholesterol, Median ([2]; Visit 3 (Week 6)): 43.36 mg/dL; HOMA of Beta Cell Function for Insulin, Median ([2]; Visit 3 (Week 6)): 116.50; TG, Median ([2]; Visit 3 (Week 6)): 147.68 mg/dL; HOMA of Beta Cell Function for Insulin, % Change from Visit 1 (LS Mean ± SE) ([2]; Visit 3 (Week 6), p 0.0010): 52.50±14.94%; HOMA of Beta Cell Function for Insulin, % Change from Visit 1 (LS Mean ± SE) ([2]; Visit 3 (Week 6), p 0.0010, listed as COMPOUND OF FORMULA(I)): 52.50 ± 14.94%; HOMA of Beta Cell Function for Insulin, Change from Visit 1 (LS Mean ± SE) ([2]; Visit 3 (Week 6), p 0.0015): 29.55 ± 8.76; HDL Cholesterol, % Change from Visit 1 (LS Mean ± SE) ([2]; Visit 3 (Week 6), p <0.0001): 29.92±5.73%; HDL Cholesterol, Change from Visit 1 (LS Mean ± SE) ([2]; Visit 3 (Week 6), p <0.0001): 9.17 ± 1.99 mg/dL; Homa of Insulin Resistance for C-Peptide, % Change from Visit 1 (LS Mean ± SE) ([2]; Visit 3 (Week 6), p <0.0001): 27.87±4.22%; Homa of Insulin Resistance for C-Peptide, Change from Visit 1 (LS Mean ± SE) ([2]; Visit 3 (Week 6), p <0.0001): 0.27 ± 0.05; Insulin (fasting), % Change from Visit 1 (LS Mean ± SE) ([2]; Visit 3 (Week 6), p <0.0001): 23.71±3.55%; Insulin (fasting), Change from Visit 1 (LS Mean ± SE) ([2]; Visit 3 (Week 6), p <0.0001): 1.21 ± 0.22 μu/mL; TG, % Change from Visit 1 (LS Mean ± SE) ([2]; Visit 3 (Week 6), p <0.0001): -40.98±4.89%; TG, Change from Visit 1 (LS Mean ± SE) ([2]; Visit 3 (Week 6), p <0.0001): -128.87 ± 14.96 mg/dL; HDL Cholesterol, % Change from Visit 1 (LS Mean ± SE) [2, 5]: 29.92 ± 5.73%; Homa of Insulin Resistance for C-Peptide, % Change from Visit 1 (LS Mean ± SE) [2, 5]: 27.87 ± 4.22%; Insulin (fasting), % Change from Visit 1 (LS Mean ± SE) [2, 5]: 23.71 ± 3.55%; TG, % Change from Visit 1 (LS Mean ± SE) [2, 5]: −40.98 ± 4.89%; HDL Cholesterol, Maximum ([2]; Visit 4 (Week 12)): 82.89 mg/dL; HDL Cholesterol, Minimum ([2]; Visit 4 (Week 12)): 17.61 mg/dL; HOMA of Beta Cell Function for Insulin, Maximum ([2]; Visit 4 (Week 12)): 273.30; HOMA of Beta Cell Function for Insulin, Minimum ([2]; Visit 4 (Week 12)): 9.80; Homa of Insulin Resistance for C-Peptide, Maximum ([2]; Visit 4 (Week 12)): 3.60; Homa of Insulin Resistance for C-Peptide, Minimum ([2]; Visit 4 (Week 12)): 1.10; Insulin (fasting), Maximum ([2]; Visit 4 (Week 12)): 24.29 μu/mL; Insulin (fasting), Minimum ([2]; Visit 4 (Week 12)): 5.93 μu/mL; TG, Maximum ([2]; Visit 4 (Week 12)): 387.69 mg/dL; TG, Minimum ([2]; Visit 4 (Week 12)): 46.88 mg/dL; Homa of Insulin Resistance for C-Peptide, Mean ± SD ([2]; Visit 4 (Week 12)): 2.15 ± 0.62; Insulin (fasting), Mean ± SD ([2]; Visit 4 (Week 12)): 11.40 ± 4.45 μu/mL; HDL Cholesterol, Mean ± SD ([2]; Visit 4 (Week 12)): 46.14 ± 14.84 mg/dL; HOMA of Beta Cell Function for Insulin, Mean ± SD ([2]; Visit 4 (Week 12)): 137.56 ± 46.11; TG, Mean ± SD ([2]; Visit 4 (Week 12)): 166.97 ± 89.17 mg/dL; Homa of Insulin Resistance for C-Peptide, Median ([2]; Visit 4 (Week 12)): 2.10; Insulin (fasting), Median ([2]; Visit 4 (Week 12)): 10.18 μu/mL; HDL Cholesterol, Median ([2]; Visit 4 (Week 12)): 47.70 mg/dL; HOMA of Beta Cell Function for Insulin, Median ([2]; Visit 4 (Week 12)): 125.60; TG, Median ([2]; Visit 4 (Week 12)): 145.91 mg/dL; HDL Cholesterol, % Change from Visit 1 (LS Mean ± SE) ([2]; Visit 4 (Week 12), p <0.0001): 34.56±6.13%; HDL Cholesterol, Change from Visit 1 (LS Mean ± SE) ([2]; Visit 4 (Week 12), p <0.0001): 10.87 ± 2.08 mg/dL; HOMA of Beta Cell Function for Insulin, % Change from Visit 1 (LS Mean ± SE) ([2]; Visit 4 (Week 12), p <0.0001): 45.64±6.22%; HOMA of Beta Cell Function for Insulin, Change from Visit 1 (LS Mean ± SE) ([2]; Visit 4 (Week 12), p <0.0001): 30.78 ± 4.25; Homa of Insulin Resistance for C-Peptide, % Change from Visit 1 (LS Mean ± SE) ([2]; Visit 4 (Week 12), p <0.0001): 58.29±5.74%; Homa of Insulin Resistance for C-Peptide, Change from Visit 1 (LS Mean ± SE) ([2]; Visit 4 (Week 12), p <0.0001): 0.56 ± 0.05; Insulin (fasting), % Change from Visit 1 (LS Mean ± SE) ([2]; Visit 4 (Week 12), p <0.0001): 47.10±4.21%; Insulin (fasting), Change from Visit 1 (LS Mean ± SE) ([2]; Visit 4 (Week 12), p <0.0001): 2.20 ± 0.21 μu/mL; TG, % Change from Visit 1 (LS Mean ± SE) ([2]; Visit 4 (Week 12), p <0.0001): -45.11±3.60%; TG, Change from Visit 1 (LS Mean ± SE) ([2]; Visit 4 (Week 12), p <0.0001): -134.71 ± 10.78 mg/dL; HDL Cholesterol, % Change from Visit 1 (LS Mean ± SE) [2, 6]: 34.56 ± 6.13%; HOMA of Beta Cell Function for Insulin, % Change from Visit 1 (LS Mean ± SE) [2, 6]: 45.64 ± 6.22%; Homa of Insulin Resistance for C-Peptide, % Change from Visit 1 (LS Mean ± SE) [2, 6]: 58.29 ± 5.74%; Insulin (fasting), % Change from Visit 1 (LS Mean ± SE) [2, 6]: 47.10 ± 4.21%; TG, % Change from Visit 1 (LS Mean ± SE) [2, 6]: −45.11 ± 3.60%; increase in the HOMA of Beta-cell function derived from C-peptide from baseline ([2]; Week 6, p 0.0104): 68.25±25.58; HOMA of insulin resistance derived from insulin, percent change from baseline ([2]; Week 6, p <0.0001): 29.10±3.94%; change in the non-HDL cholesterol levels from baseline ([2]; Week 6 and Week 12, p-values 0.3963 and 0.4646): no statistically significant change; HOMA of insulin resistance derived from insulin, percent change from baseline ([2]; Week 12, p <0.0001): 42.65±3.79%; increase in the HOMA of Beta-cell function derived from C-peptide from baseline ([2]; Week 12, p <0.0001): 71.67±16.20; effect of food on absorption [3]: food significantly affects absorption

Q: For `C[C@]12CC[C@H]3[C@@H](CCC4=CC(=O)CC[C@@]43C)[C@@H]1CC[C@@H]2O` [testosterone], which “change in VAT” value ([4]; placebo +2.3%, no statistically significant difference) is on record?
A: The value was “+0.9%”.

Q: What about the “change in limb fat” value ([4]; placebo +3.1%, statistically significant) of the same compound?
A: The value was −10.1%.

Q: What about the “change in abdominal fat” value ([4]; placebo +4.3%, statistically significant) of the same compound?
A: The value was −1.5%.

Q: And the “change in trunk fat” value ([4]; placebo +4.6%, statistically significant)?
A: The value was −9.9%.

Q: And the “change in abdominal subcutaneous adipose tissue (SAT)” value ([4]; placebo +8.1%, statistically significant)?
A: The value was −7.2%.
